This note sets out measurements from patent publication US20040087661A1, “Treatment of CNS disorders with trans 4-3(3,4-dichlorophenyl)-1,2,3,4-tetrahydro-N-methyl-1-napthalenamine” (Sepracor, Inc., priority 2002, published 2004).

Like-named read-outs stand apart in the source and are kept apart here. Bounds are passed on as bounds.

The target of experiment [1] is T1, functional uptake of norepinephrine (NE) (Rattus norvegicus, UniProt Q63380).
T1 construct: synaptosomes isolated at Cerep in a 0.32 M sucrose buffer from a male Wistar rat hypothalamus; tissue Cerep; host or cells: male Wistar rat hypothalamus synaptosomes
T1 sequence (Q63380 1-617): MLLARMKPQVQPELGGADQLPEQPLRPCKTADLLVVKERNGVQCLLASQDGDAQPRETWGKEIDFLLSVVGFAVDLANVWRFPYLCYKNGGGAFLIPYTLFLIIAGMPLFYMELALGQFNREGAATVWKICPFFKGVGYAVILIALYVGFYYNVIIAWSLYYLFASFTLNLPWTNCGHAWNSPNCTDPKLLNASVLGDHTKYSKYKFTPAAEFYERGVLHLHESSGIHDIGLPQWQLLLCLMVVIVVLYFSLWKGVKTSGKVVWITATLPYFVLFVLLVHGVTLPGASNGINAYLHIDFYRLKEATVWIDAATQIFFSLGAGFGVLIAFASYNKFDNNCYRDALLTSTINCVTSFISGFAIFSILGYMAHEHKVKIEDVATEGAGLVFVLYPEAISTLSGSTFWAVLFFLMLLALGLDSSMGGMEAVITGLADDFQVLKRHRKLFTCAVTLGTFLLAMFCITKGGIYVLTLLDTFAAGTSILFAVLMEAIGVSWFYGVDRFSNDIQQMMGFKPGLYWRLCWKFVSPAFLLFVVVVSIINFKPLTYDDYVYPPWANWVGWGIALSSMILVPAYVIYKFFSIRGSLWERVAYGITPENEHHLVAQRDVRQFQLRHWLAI
Description: Norepinephrine functional uptake assay in rat hypothalamus synaptosomes. Type of experiment: biochemical. To be noted: read-out: inhibition of NE uptake (no IC50 determined).
Description: Norepinephrine Functional Uptake Assay
Characterization of norepinephrine uptake is performed using synaptosomes isolated at Cerep in a 0.32 M sucrose buffer from a male Wistar rat hypothalamus. The uptake of radiolabeled norepinephrine by synaptosomes (100 μg of proteins/point) is allowed by incubating them in a deep well for 20 minutes at 37° C. in presence of test compounds and [^3H]-norepinephrine (0.1 μCi/point).
Synaptosomes and [^3H]-norepinephrine are prepared in a Krebs buffer pH 7.4 containing 25 mM NaHCO3, 11 mM glucose and 50 μM ascorbic acid. This incubation buffer is oxygenated during 5 minutes before incubation. Basal control is incubated for 20 minutes at 4° C. in order to avoid any uptake. Following this incubation the uptake is stopped by filtration through an “unifilter 96-wells GFB” Packard plate washed with Krebs buffer containing 25 mM NaHCO3 in order to eliminate the free [^3H]-norepinephrine. The radioactivity associated to the synaptosomes retained onto the unifilter corresponding to the uptake is then measured with a microplate scintillation counter Topcount, Packard using a scintillation liquid microscint 0, Packard.

Experiment [2] has as its target T2, functional uptake of dopamine (DA) (Rattus norvegicus, UniProt P23977).
T2 construct: synaptosomes isolated at Cerep in a 0.32 M sucrose buffer from a male Wistar rat striatum; tissue Cerep; host or cells: male Wistar rat striatum synaptosomes
Kind of experiment: Dopamine functional uptake assay in rat striatum synaptosomes. Type of experiment: biochemical. The settings on record: initial test at 10 μM in duplicate; read-out: inhibition of DA uptake (no IC50 determined).
Description: Dopamine Functional Uptake Assay
Characterization of dopamine uptake is performed using synaptosomes isolated at Cerep in a 0.32 M sucrose buffer from a male Wistar rat striatum. The uptake of radiolabelled dopamine by synaptosomes (20 μg of proteins/point) is allowed by incubating them in a deep well for 15 minutes at 37° C. in presence of test compounds and [^3H]-dopamine (0.1 μCi/point).
Synaptosomes and [^3H]-dopamine are prepared in a Krebs buffer pH 7.4 containing 25 mM NaHCO3, 11 mM glucose and 50 μM ascorbic acid. This incubation buffer is oxygenated during 5 minutes before incubation. Basal control is incubated for 15 minutes at 4° C. in order to avoid any uptake. Following this incubation the uptake is stopped by filtration through an “unifilter 96-wells GFB” Packard plate washed with Krebs buffer containing 25 mM NaHCO3 in order to eliminate the free [^3H]-dopamine. The radioactivity associated to the synaptosomes retained onto the unifilter corresponding to the uptake is then measured with a microplate scintillation counter Topcount, Packard using a scintillation liquid microscint 0, Packard.

T2 sequence (P23977 whole entry): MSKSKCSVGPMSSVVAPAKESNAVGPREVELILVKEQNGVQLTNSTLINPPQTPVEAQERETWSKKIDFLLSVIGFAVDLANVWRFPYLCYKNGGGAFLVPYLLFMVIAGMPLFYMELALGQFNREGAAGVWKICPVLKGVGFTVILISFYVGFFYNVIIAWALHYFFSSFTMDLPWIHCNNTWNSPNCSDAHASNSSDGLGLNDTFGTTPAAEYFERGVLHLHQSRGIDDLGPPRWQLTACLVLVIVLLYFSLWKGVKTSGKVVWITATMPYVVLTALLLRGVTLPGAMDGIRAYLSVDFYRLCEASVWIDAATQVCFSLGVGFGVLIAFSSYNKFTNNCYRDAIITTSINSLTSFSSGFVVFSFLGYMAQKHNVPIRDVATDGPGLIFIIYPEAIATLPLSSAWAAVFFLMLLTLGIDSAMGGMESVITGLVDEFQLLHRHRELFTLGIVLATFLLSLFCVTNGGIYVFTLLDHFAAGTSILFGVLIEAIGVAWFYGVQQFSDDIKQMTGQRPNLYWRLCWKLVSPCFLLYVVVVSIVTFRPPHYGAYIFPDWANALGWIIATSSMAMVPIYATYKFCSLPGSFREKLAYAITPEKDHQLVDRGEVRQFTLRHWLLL

As usually defined, the inhibition is the share of the control response that was lost under treatment. Regarding `CN(C)CCCN1c2ccccc2CCc2ccccc21` [imipramine], the inhibition at 10 µM in experiment [1] and in experiment [2] was less than 50% throughout. With `Fc1ccc(C(OCCN2CCN(CCCc3ccccc3)CC2)c2ccc(F)cc2)cc1` [GBR 12909], in experiment [1] (initial test at 10 μM in duplicate), the inhibition at 10 µM is less than 50%. As to `CNCCCC1c2ccccc2C=Cc2ccccc21` [protriptyline], the inhibition at 10 µM in experiment [2] was less than 50%.
